This is an account of results in PMC8480782, “Efficient Dimerization Disruption of Leishmania infantum Trypanothione Reductase by Triazole-phenyl-thiazoles” (Journal of Medicinal Chemistry, 2021).

The structures appear in SMILES notation.

What is called IC50 is the concentration that gives 50% inhibition. As usually defined, the EC50 is the concentration at which the effect is half-maximal. In general, melting point refers to the temperature, or range, at which the solid turns liquid.

For one data set, the target named is T1, TbTryR (Trypanosoma brucei brucei, UniProt P39051).
T1 construct: HIS; made in house; host or cells: E. coli
The experiment in a line: TryR oxidoreductase activity, DTNB-coupled assay (TbTryR). It is filed as biochemical. The settings on record: read-out: IC50, oxidoreductase activity of TbTryR. The text has this: (§1) The DNA coding sequences for Homo sapiens GR, T. brucei TryR, and T. congolense TryR were polymerase chain reaction (PCR)-amplified and cloned in the pRSETA plasmid. The DNA coding for hGR (transcript variant 1; NCBI Reference Sequence: NM_000637.5) was purchased from GeneScript. Genomic DNA from T. congolense parasites was kindly provided by Dr. Stefan Magez (University of Vrije, Brussels). Genomic DNA from the T. brucei S16 cell line was kindly provided by José M. Pérez-Victoria. Instituto de Parasitología y Biomedicina “López—Neyra” CSIC. HIS-tagged recombinant T. brucei and T. congolense TryRs (TbTryR and TcoTryR, respectively) were purified from E. coli as already explained for LiTryR.
(§2) TryR oxidoreductase activity was determined spectrophotometrically using a modified version of the DTNB-coupled assay described by Hamilton et al.[52] Briefly, reactions were carried out at 26 °C in 250 μL of N-(2-hydroxyethyl)piperazine-N′-ethanesulfonic acid (HEPES) buffer (pH 7.5, 40 mM) containing ethylenediaminetetraacetic acid (EDTA) (1 mM), NADP^+ (30 μM), DTNB (25 μM), TS2 (1 μM), NADPH (150 μM), glycerol (0.02%), DMSO (1.75%), and recombinant TryR (7 nM). […] Reactions were started by addition of a mixture of NADPH and TS2.
(§3) TryR oxidoreductase activity was monitored at 26 °C by an increase in absorbance at 412 nm in an EnSpire Multimode Plate Reader (PerkinElmer, Waltham, MA). […] (TNB) concentration was obtained by multiplying the absorbance values by 100 (50 μM TNB generates 0.5 arbitrary units of absorbance at 412 nm). In this DTNB-coupled assay, one molecule of T(SH)2 reduces one molecule of DTNB, producing two TNB molecules. All of the assays were conducted in at least three independent experiments. Data were analyzed using a nonlinear regression model with GraFit 6 software (Erithacus, Horley, Surrey, U.K.).

The target of a further data set is T2, TcoTryR (Trypanosoma congolense, UniProt P13110).
T2 construct: HIS; made in house; host or cells: E. coli
Briefly: TryR oxidoreductase activity, DTNB-coupled assay (TcoTryR). It counts as biochemical.
Description: as §1, §2, §3

Data set [1] deals with L. infantum promastigotes. Briefly: Leishmanicidal activity on promastigotes (PI exclusion, flow cytometry). It counts as cell-based, Leishmania infantum. The settings on record: Leishmania infantum; 24 h at 26 °C; read-out: EC50 promastigotes. A digest of the protocol: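 Log-phase L. infantum promastigotes (MCAN/ES/89/IPZ229/1/89) at 2 × 10^6 parasites/mL in RPMI-1640 with 10% FCS, pH 7.2, were drug-treated for 24 h at 26 °C. Viability was scored by flow cytometric propidium iodide exclusion, and EC50 was derived by nonlinear regression.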
On the technique in general: Flow cytometry measures light scatter and fluorescence of single cells or particles in a stream.

Data set [2] concerns L. infantum axenic amastigotes. The experiment in a line: Leishmanicidal activity on axenic amastigotes (PI exclusion, flow cytometry). It is filed as cell-based, Leishmania infantum. The settings on record: Leishmania infantum; axenic amastigotes, 24 h at 37 °C; read-out: EC50 amastigotes. In a few lines:
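Leishmania infantum axenic amastigotes (MCAN/ES/89/IPZ229/1/89) were cultured at 37 °C in M199 medium, pH 5.4, with 10% heat-inactivated FCS, organic acids, MES, hemin and gentamicine. After compound exposure, parasites were gated by FSC/SSC and live versus dead cells were distinguished by propidium iodide exclusion using flow cytometry. EC50 values came from nonlinear regression in GraFit 6, with triplicates in at least three independent experiments.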

The next data set deals with HepG2 cells. Briefly: Cellular toxicity, crystal violet assay. It is filed as cell-based. The settings on record: Homo sapiens, HepG2; 24 h, crystal violet method; read-out: EC50 HepG2. The method, then: Liver hepatocellular carcinoma HepG2 cells were grown in Dulbecco’s modified Eagle’s medium (DMEM) (Sigma-Aldrich, St. Louis, MO) with 10% heat-inactivated FCS, antibiotics, and 10 mM HEPES.
Drug treatment of liver hepatocellular carcinoma HepG2 cells was performed at a concentration of 10^5 cells/mL at 37 °C and 5% CO2 for 24 h. EC50 was evaluated by the crystal violet assay. Briefly, cells were washed with phosphate-buffered saline (PBS) and stained with 200 μL of crystal violet solution (0.2% crystal violet, 2% ethanol) for 10 min at room temperature. Next, the plates were washed twice with tap water and allowed to dry. The stained cells were solubilized with 400 μL of 1% sodium dodecyl sulfate (SDS), and the color intensity was quantified at 570 nm using an EnSpire Multimode Plate Reader (PerkinElmer, Waltham, MA). All of the assays were conducted in triplicate in at least three independent experiments. Data were analyzed using a nonlinear regression model with GraFit 6 software (Erithacus, Horley, Surrey, U.K.).

The test system of data set [3] is L. infantum intracellular amastigotes. The experiment in a line: Leishmanicidal activity in amastigote-infected THP-1 monocyte-derived macrophages. It is filed as cell-based, Leishmania infantum. The settings on record: Leishmania infantum, THP-1, 72 h, read-out: EC50 intracellular amastigotes, amastigote-infected THP-1 macrophages, 72 h. The method, then:
(§4) THP-1 monocytes were seeded in a 48-well plate at a concentration of 5 × 10^5 cells/mL (250 μL/well) in RPMI complete medium supplemented with phorbol 12-myristate 13-acetate (PMA) (100 ng/mL). Differentiation of THP-1 monocytes to macrophages was allowed for 24 h at 37 °C and 5% CO2. THP-1-derived macrophages were infected with GFP-expressing axenic amastigotes at 5 × 10^6 parasites/mL in RPMI complete medium for 24 h (250 μL/well). Extracellular amastigotes were washed twice with PBS. The remaining extracellular parasites were challenged for 24 h with THP-1 medium supplemented with 10% horse serum (Gibco) instead of FCS. Cells were washed twice with PBS, and treatments were performed in 250 μL of fresh RPMI medium supplemented with 10% horse serum for 72 h at 37 °C and 5% CO2. Afterward, treatments were removed by two PBS washes. Lysis of infected cells was performed with 120 μL of SDS 0.005% (w/v) in PBS. After a 30 min incubation at 37 °C, lysis was stopped by adding RPMI complete medium with PI at 20 μg/mL (120 μL/well). The lysates were transferred to a 96-well plate (200 μL/well), and the GFP^+ amastigotes extracted from the infected cells were acquired by a Beckman Coulter FC500 flow cytometer. Each sample (100 μL) was acquired for 20 s.
The relative number of GFP^+ intracellular amastigotes per cell in each sample was estimated after the division of the total number of GFP+ amastigotes by the LDH activity value of the sample. Results were normalized to the vehicle-treated controls. EC50 values of intracellular amastigotes were calculated using a nonlinear regression model with GraFit 6 software (Erithacus, Horley, Surrey, U.K.). All of the assays were conducted in at least three independent experiments.

Data set [4] deals with THP-1 monocyte-derived macrophages. Briefly: Cytotoxicity in THP-1 monocyte-derived macrophages (LDH activity). The settings on record: Homo sapiens, THP-1; LDH activity. It counts as cell-based, human. The protocol:
THP-1 cells were grown in RPMI-1640 medium (Gibco, Leiden, The Netherlands) supplemented with 10% heat-inactivated FCS, antibiotics, 10 mM HEPES, 2 mM glutamine, and 1 mM sodium pyruvate, pH 7.2, at 37 °C and 5% CO2.
as §4
Cytotoxicity of THP-1 infected macrophages was determined using an in-house developed lactate dehydrogenase (LDH) activity assay. LDH activity assays from the remaining cell lysates (100 μL/well) were carried out at 37 °C in 250 μL of Tris/HCl buffer (pH 8.9, 50 mM) containing DL-lactate (840 mM), NAD^+ (450 μM), 1-methoxyphenazine methosulfate (45 μM), and nitro blue tetrazolium chloride (40 μM). The color intensity of the generated formazan dye was monitored at 570 nm using an EnSpire Multimode Plate Reader (PerkinElmer, Waltham, MA). CC50 values were calculated using a nonlinear regression model with GraFit 6 software (Erithacus, Horley, Surrey, U.K.).

The target in a further data set is T3, LiTryR (Leishmania infantum, UniProt A4HSF7).
T3 construct: HIS (N); made in house; host or cells: E. coli BL21 (DE3) Rossetta
Briefly: biochemical. It is filed as biochemical. As to conditions: LiTryR; 1 μM TS2; maximum assayed 75 μM; read-out: IC50^act, TryR oxidoreductase activity. The method, then:
A concentration of 1 μM TS2 was used for this initial screening. This low substrate concentration is sufficient for comparison of compound inhibitory activity in the oxidoreductase assay.
Recombinant L. infantum TryR (LiTryR) HIS-tagged and HIS-FLAG-tagged versions were used for all LiTryR oxidoreductase activity and dimer quantitation assays. These LiTryR versions were purified from Escherichia coli as previously described.[25] Briefly, pRSETA-HIS-LiTryR construct alone or in combination with the pET24a-FLAG-LiTryR construct was transformed into BL21 (DE3) Rossetta E. coli strain. An overnight E. coli culture grown at 37 °C in Luria–Bertani (LB) medium with the appropriate antibiotics and vigorous shaking was diluted (1:100) in the same medium and allowed to grow in the same conditions until the OD600 was 0.5. Then, LiTryR expression was induced by addition of 1 mM isopropyl-β-D-1-thiogalactopyranoside (IPTG) for 16 h at 26 °C. The cells were centrifuged for 5 min at 9000g and 4 °C and the wet pellet resuspended in lysis buffer (50 mM Tris, pH 7, 300 mM NaCl, 25 mM imidazole, protease inhibitor cocktail, and 1 mg/mL lysozyme). […] The supernatant was sonicated again as previously described for 10 min and loaded on a HisTrap column (GE Healthcare, Chicago, IL) for 16 h at 4 °C using a P-1 peristaltic pump (GE Healthcare, Chicago, IL). Once loaded, the HisTrap column was connected to an ÄKTA purifier UPC 10 (GE Healthcare, Chicago, IL) and washed using a 5–10% gradient between buffer A (50 mM Tris, pH 7 and 300 mM NaCl) and B (50 mM Tris, pH 7, 300 mM NaCl, and 500 mM imidazole). LiTryR was eluted using a 40% gradient between buffers A and B. Fractions containing recombinant LiTryR were pooled and loaded into a HiPrep 26/10 Desalting column (GE Healthcare, Chicago, IL) previously equilibrated with buffer A. Finally, LiTryR was concentrated to 2 mg/mL using an Amicon Ultra-15 50K (Merck Millipore, Burlington, MA) and an equal volume of glycerol was added before storing at −20 °C.
as §2, §3

The next data set concerns the target T4, LiTryR dimer (Leishmania infantum, UniProt A4HSF7).
T4 construct: made in house; host or cells: E. coli BL21 (DE3) Rossetta (co-transformed with both plasmids)
The experiment in a line: biochemical. The settings on record: 400 nM LiTryR, 16 h at 37 °C; read-out: IC50^dim, LiTryR monomer displacement (dimer quantitation ELISA). The method, then: The stability of the LiTryR dimeric form in the presence of 1,2,3-triazole-phenyl-thiazole-based compounds was evaluated using the novel enzyme-linked immunosorbent assay (ELISA) developed in our laboratory.[25] […] Next, the different solutions were centrifuged at 18 000g for 15 min at room temperature. The supernatants (200 μL/well) were added to the α-FLAG-coated plates (Sigma-Aldrich, St. Louis, MO) and incubated for 30 min at 37 °C with agitation in a humid atmosphere. The plates were washed five times with TTBS buffer (2 mM Tris, pH 7.6, 138 mM NaCl, and 0.1% Tween-20) and incubated with diluted monoclonal α-HIS horseradish peroxidase (HRP)-conjugated antibody (200 μL, 1:50 000, Abcam, Cambridge, U.K.) in fatty acid- and essentially globulin-free bovine serum albumin (BSA) (5%) prepared in TTBS buffer for 1 h at room temperature. The plates were washed five times, and o-phenylenediamine dihydrochloride (OPD) substrate prepared according to the manufacturer’s instructions was added. The enzymatic reaction was stopped after 5 min with H2SO4 (100 μL, […]), and the absorbances were measured at 490 nm in an EnSpire Multimode Plate Reader (PerkinElmer, Waltham, MA). All of the assays were conducted in triplicate in at least three independent experiments. Data were analyzed using a nonlinear regression model with GraFit 6 software (Erithacus, Horley, Surrey, U.K.).

T2 sequence (P13110 whole entry): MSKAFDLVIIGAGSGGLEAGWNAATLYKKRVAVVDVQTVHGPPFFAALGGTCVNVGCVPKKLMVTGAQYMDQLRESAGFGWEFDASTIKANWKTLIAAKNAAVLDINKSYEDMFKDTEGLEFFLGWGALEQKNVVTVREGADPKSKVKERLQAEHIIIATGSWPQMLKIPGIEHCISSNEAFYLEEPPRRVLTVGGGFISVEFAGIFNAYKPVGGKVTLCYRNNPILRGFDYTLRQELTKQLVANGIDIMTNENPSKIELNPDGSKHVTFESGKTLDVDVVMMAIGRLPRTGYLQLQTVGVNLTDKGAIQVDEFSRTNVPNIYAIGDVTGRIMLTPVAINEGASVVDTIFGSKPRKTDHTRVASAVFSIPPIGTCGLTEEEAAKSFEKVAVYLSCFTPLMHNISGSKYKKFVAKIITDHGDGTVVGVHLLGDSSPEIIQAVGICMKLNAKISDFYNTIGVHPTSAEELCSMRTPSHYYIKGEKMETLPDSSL
T4 sequence (A4HSF7 1-491): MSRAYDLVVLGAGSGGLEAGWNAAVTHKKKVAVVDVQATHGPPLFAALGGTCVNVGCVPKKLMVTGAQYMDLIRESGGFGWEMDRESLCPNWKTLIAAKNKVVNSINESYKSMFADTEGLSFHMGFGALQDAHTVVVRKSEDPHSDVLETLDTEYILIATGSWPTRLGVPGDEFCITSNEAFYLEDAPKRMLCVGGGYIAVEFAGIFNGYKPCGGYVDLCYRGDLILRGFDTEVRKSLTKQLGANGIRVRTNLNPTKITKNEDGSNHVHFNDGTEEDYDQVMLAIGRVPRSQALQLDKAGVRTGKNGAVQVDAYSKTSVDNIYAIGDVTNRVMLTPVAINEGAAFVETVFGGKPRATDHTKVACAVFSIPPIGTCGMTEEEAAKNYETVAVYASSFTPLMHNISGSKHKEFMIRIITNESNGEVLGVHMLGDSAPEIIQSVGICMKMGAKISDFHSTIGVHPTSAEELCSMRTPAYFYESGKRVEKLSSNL
T3 sequence (A4HSF7 1-491): as above
T1 sequence (P39051 whole entry): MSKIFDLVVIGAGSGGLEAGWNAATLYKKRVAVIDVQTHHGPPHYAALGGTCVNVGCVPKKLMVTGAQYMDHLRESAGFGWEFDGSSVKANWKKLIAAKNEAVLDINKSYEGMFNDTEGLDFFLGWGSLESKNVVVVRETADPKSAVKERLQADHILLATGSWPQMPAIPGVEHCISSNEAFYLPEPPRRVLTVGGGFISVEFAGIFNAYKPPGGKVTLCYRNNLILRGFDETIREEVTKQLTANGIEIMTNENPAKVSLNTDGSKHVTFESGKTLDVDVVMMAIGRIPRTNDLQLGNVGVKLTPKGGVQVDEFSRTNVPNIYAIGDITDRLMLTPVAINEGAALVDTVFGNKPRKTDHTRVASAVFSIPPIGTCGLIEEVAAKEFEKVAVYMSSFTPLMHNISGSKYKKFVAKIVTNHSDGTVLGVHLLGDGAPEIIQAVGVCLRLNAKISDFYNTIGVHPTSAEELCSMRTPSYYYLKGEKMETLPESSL

Take `NCCCCc1cn(-c2ccc(-c3nc(CCc4ccccc4)cs3)c(OCCN3CCNC3=O)c2)nn1` [12a, 1-(2-(5-(4-(4-Ammoniumbutyl)-1H-1,2,3-triazol-1-yl)-2-(4-phenethylthiazol-2-yl)phenoxy)ethyl)imidazolidin-2-one 2,2,2-Trifluoroacetate]: the half-inhibitory concentration (IC50) on TbTryR was 13.3 ± 1.9 µM; at TcoTryR, 11 ± 1.3 µM. The 50% effective concentration (EC50) in [1] is 16.4 ± 0.9 µM; in data set [2] it was 13.9 ± 0.6 µM; in the data set on HepG2 cells, 20.3 ± 2.4 µM; in data set [3], 32.4 ± 6.7 µM; in data set [4] it was 45 ± 3.1 µM.

The molecule `O=C(O)CCCc1cn(-c2ccc(-c3nc(CCc4ccccc4)cs3)c(OCCN3CCNC3=O)c2)nn1` [12g] yielded a melting point of 174.5 to 177.5 °C. On LiTryR, the IC50 was above 75 µM. For the same molecule, the half-maximal inhibitory concentration (IC50) on LiTryR dimer is above 75 µM.
